Here are results for one molecule from article PMC5120274, “Characterization of the Annonaceous acetogenin, annonacinone, a natural product inhibitor of plasminogen activator inhibitor-1” (Scientific Reports, 2016).

For assay [1], the system named is T1, PAI-1/tPA complex.
T1 construct: purchased Stago BNL (Asnières sur Seine, FR)
The experiment in a line: PAI-1/tPA complex formation on SDS-PAGE. The format is biochemical, human. The conditions noted are these: PAI-1 pre-incubated with annonacinone 30 min 37 °C. On the procedure: PAI-1 (4 μL, 1 μM) was pre-incubated with 16 μL annonacinone (2% DMSO) for 30 min at 37 °C. Human tPA (4 μL, 0.5 μM) was then added to the mixture and incubated for 15 min at 37 °C. Reaction was stopped by addition of 4X SDS-PAGE loading buffer followed by immediate boiling. Samples were then analyzed on SDS-PAGE followed by silver staining.

The subject of assay [2] is FeCl3-occluded venules. As to the kind of experiment: murine model of rtPA-induced thrombolysis by intravital microscopy. The format is in vivo, mice. On the procedure:
Thrombolysis was evaluated in an in vivo mouse model according to the method previously described[18] with modifications. Briefly, platelets of anesthetized mice were fluorescently labeled in vivo by injection of rhodamine 6G (3.3 mg/kg) into the retro-orbital plexus, then thrombus formation was induced by topical deposition on the mesenteric vessels of ferric chloride solution (FeCl3; 15%) in 4- to 5-week-old mice. Thrombus growth was monitored in real-time with an inverted epifluorescent microscope (x10) (Nikon Eclipse TE2000U). Within the 10 minutes after total occlusion of the vessel, the effect of annonacinone was evaluated on the efficiency of rtPA-induced thrombolysis by applying directly on the occluded vessels a thrombolytic cocktail (40 μL) composed of 40 μM rtPA (Actilyse®), 200 μM Argatroban (Arganova®) and 0.2% DMSO or 20 μM annonacinone. The incidence of the recanalization, defined as a partial or complete restoration of flow associated to a decrease of more than 50% of the initial thrombus size, and the evolution of thrombus size were determined during 1 hour.

In assay [3] the target is T2, PAI-1/vitronectin complex (Homo sapiens, UniProt P05121).
T2 construct: purchased Stago BNL (Asnières sur Seine, FR)
T2 sequence (P05121 24-402, one chain of several): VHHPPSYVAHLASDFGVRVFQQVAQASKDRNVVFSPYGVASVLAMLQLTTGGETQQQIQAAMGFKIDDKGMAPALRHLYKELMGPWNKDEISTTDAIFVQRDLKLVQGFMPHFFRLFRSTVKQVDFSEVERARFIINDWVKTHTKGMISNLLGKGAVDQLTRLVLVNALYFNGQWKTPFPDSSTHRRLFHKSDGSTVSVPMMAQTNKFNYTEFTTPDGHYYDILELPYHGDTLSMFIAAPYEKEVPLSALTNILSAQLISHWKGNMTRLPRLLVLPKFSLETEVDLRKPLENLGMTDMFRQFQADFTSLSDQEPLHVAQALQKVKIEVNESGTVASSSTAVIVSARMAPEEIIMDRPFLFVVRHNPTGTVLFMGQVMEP
As to the kind of experiment: chromogenic kinetic assay in presence of vitronectin. The format is biochemical. On the procedure:
Compounds (20 μL) were dispensed in a 96 well half area Greiner plate. A mixture containing 20 μL of PAI-1 (final concentration 20 nM) and 40 μL of a chromogenic substrate (Spectrozyme-tPA, final concentration 400 μM) was then added, and the mixture pre-incubated for 20 minutes at 37 °C. 40 μL of vitronectin (final concentration 37.5 nM) was added and the mixture further pre-incubated for 20 min at 37 °C. At the end of pre-incubation time, 90 μL of the PAI-1/vitronectin/compound mixture were added to 10 μL of tPA (final concentration 10 nM) and the tPA catalysed substrate hydrolysis reaction was followed for 45 min at 405 nm. Progress curves were then fitted using the pseudo first order equation to determine the apparent rate constant k.

Assay [4] relates to T3, human α1-antitrypsin.
T3 construct: purchased Sigma
As to the kind of experiment: continuous chromogenic assay: inhibition of neutrophil elastase by α1-antitrypsin. The format is biochemical. The conditions noted are these: α1-antitrypsin pre-incubated with 50 μM annonacinone 20 min 37 °C; untreated 1.2 × 10^−3. On the procedure: 5 μM human α1-antitrypsin (Sigma) or human antithrombin (Aclotin®, LFB) were incubated with 50 μM annonacinone (or 0.5% DMSO in reaction buffer as control) for 20 min at 37 °C. The mixtures containing α1-antitrypsin were diluted in N-Methoxysuccinyl-Ala-Ala-Pro-Val p-nitroanilide (Sigma) containing solution and substrate hydrolysis kinetic was triggered by addition of neutrophil elastase (Sigma) to a final volume of 100 μL containing 13 nM α1-antitrypsin, 130 nM annonacinone, 82 μM chromogenic substrate and 5 nM neutrophil elastase. The mixtures containing antithrombin were diluted in fondaparinux (Arixtra®, GlaxoSmithKline) and CS-11(22)-FXa (Hyphen Biomed) containing solution and substrate hydrolysis kinetic was triggered by addition of factor Xa (Stago BNL) to a final volume of 100 μL containing 51 nM antithrombin, 510 nM annonacinone, 200 μM chromogenic substrate, 5 μM fondaparinux and 2 nM factor Xa.

SMILES strings stand for the structures.

Consider `CCCCCCCCCCCC[C@@H](O)[C@H]1CC[C@H]([C@H](O)CCCCC(=O)CCCCC[C@@H](O)CC2=C[C@H](C)OC2=O)O1` [Annonacinone], for which, in assay [1], the “effect on PAI-1/tPA covalent complex formation” value is “concentration-dependent inhibition”. In assay [2] (20 μM annonacinone applied locally with rtPA 40 μM and Argatroban 200 μM, 1 hour, DMSO 0.2% control 28%), the incidence of recanalization was 71%. Also, the “total number of vessels recanalized per group of 7 mice” value in assay [2] (20 μM annonacinone with rtPA 40 μM and Argatroban 200 μM, 1 hour, DMSO control 2/7) is recorded as 5/7. The “decrease of thrombus size from initial size” value in assay [2] (35 minutes of treatment, 20 μM annonacinone with rtPA and Argatroban, n = 7, DMSO 3.4 ± 8.5%) was 29.7 ± 7.7%. In addition, in assay [3] (50 μM), the “activity on PAI-1 bound to vitronectin” value was “inactive”. The “kapp, annonacinone added to PAI-1 pre-incubated with vitronectin” value in assay [3] (50 μM, PAI-1 pre-incubated with VN 20 min 37 °C, DMSO 1% 1.05 ± […] 10^−2) is on record as 2.16 ± 0.17 × 10^−2 s^−1. For the same molecule, the “kapp, annonacinone pre-incubated with PAI-1 before addition of vitronectin” value in assay [3] (50 μM, pre-incubation with PAI-1 20 min 37 °C, then VN 20 min 37 °C) is recorded as 2.39 ± 0.32 × 10^−3 s^−1. Further, the IC50 in assay [3] (annonacinone pre-incubated with PAI-1 before vitronectin) was found to be 10 ± 2 µM. Besides, in assay [4], the “kapp of neutrophil elastase inhibition by α1-antitrypsin” value is 0.0011 s⁻¹.

The term IC50 denotes the midpoint of a concentration-inhibition curve.
